In the oligonucleotide strings, read from the 5' end, every base follows the letter of its sugar. An asterisk marks phosphorothioate; unmarked linkages are phosphodiester. Other units and linkages are bracketed, terminal groups are in braces. A string of capitals states the bases alone. d = 2'-deoxy (DNA)
Tests used:
[1] = system: 1674U- and 1674C-alleles of RPA70 mRNA; assay: Cell transfection assay (J. P. Basilion, unpublished results); format: cell-based, human; conditions: previously shown
[2] = system: 1674U-allele of endogenous RPA70 mRNA; assay: Oligonucleotide-directed cleavage of endogenous RPA70 mRNA in HeLa cell extracts (Northern blot); format: biochemical, human; conditions: for cleavage of matched allele versus singly mismatched allele: HeLa (1674U) versus Calu-1 (1674C) extracts
Experimental: (§1) FIG. 4. Northern blot analysis of oligonucleotide-directed cleavage of endogenous RPA70 mRNA in human cell extracts. The extracts were prepared from HeLa and Calu-1 cells that express only the 1674U- or the 1674 C-allele of the RPA70 mRNA, respectively. In addition to PS-oligos 1, 2, 3, and 6 as described in FIG. 3, oligo 7 (5′ […] 3′; SEQ ID NO:1) was used in the assay as a non-allele-specific control oligo that targets nucleotides 2230-2249 of the 3′-UTR of RPA70 mRNA. a, Targeting the 1674U/C polymorphic site by oligos 1 and 2. b, Targeting the site of different allelic structures around nucleotide 1656 by oligos 3 and 6. Reactions were done in duplicates. The averaged data points of the duplicates are plotted with standard deviations as error bars, and are shown below the corresponding Northern blots. Intact RPA70 mRNA levels were normalized to GAPDH levels and expressed as a percentage of no-oligo control for each experiment.
Oligonucleotide-directed Cleavage of Endogenous RPA70 mRNA in Human Cell Extracts. Human tumor cell lines HeLa and Calu-1 (American Type Culture collection) were genotyped for SNPs in RPA70 cDNA by RFLP analysis and by sequencing. […] HeLa cells were cultured in monolayers in minimum essential medium (Gibco BRL), and Calu-1 cells were cultured in monolayers in McCoy's 5A medium (Sigma). Both media were supplemented with 10% heat inactivated fetal bovine serum (JRH Biosciences), 100 units/mL penicillin-100 μg/mL streptomycin (Gibco BRL), and 2 mM L-glutamine (Gibco BRL). Both cell lines were grown under 5% CO2/95% air in a humidified incubator at 37° C. For preparation of cell extracts, the cells were grown to 80-90% confluence, typsinized, and washed twice with the complete medium as specified above and twice with phosphate buffered saline (Gibco BRL). Approximately 5×10^7 Cells were lysed in a 15 mL tissue grinder with a Teflon pestle (Wheaton) in the presence of 1.5 mL lysis buffer (20 mM Tris.HCl, pH 7.5, 420 mM NaCl, 2 mM MgCl2, 0.2 mM EDTA, 1 mM DTT, 0.5 mM phenylmethyl sulfonylfluoride (PMSF), and 25% glycerol). The sodium salt concentration was chosen to facilitate the disruption of the nuclear membrane to release RNase H from nuclei (21). Up to 200 strokes were needed to completely lyse the cells, as checked using a hemacytometer. The cell lysate was centrifuged at 14,000, rpm for 10 min at 4° C., and cell extracts were obtained by transferring supernatant to clean microcentrifuge tubes and freezing immediately at −80° C. Total protein concentration of cell extracts was determined using the Bradford assay (Bio-Rad). For oligodeoxynucleotide-directed cleavage of endogenous mRNA reactions, cell extracts were diluted to a total protein concentration of 3 mg/mL with the lysis buffer. After the addition of a 10× PS-oligo solution to the diluted cell extracts, the reaction mixture was incubated for 40 min at 37° C. The level of intact RPA70 mRNA was determined by total RNA isolation and Northern blot hybridization using procedures described previously (22, 23), and followed by phosphoimager analysis. Northern probes specific for RPA70 mRNA were synthesized by random primed [α-^32P]dCTP-labeling of a cDNA probe corresponding to nucleotides 1519-2080 of human RPA70 mRNA. To account for variability in the amount of total RNA loaded into individual gel wells for Northern analysis, the level of glyceraldehyde 3-phosphate dehydrogenase (GAPDH) mRNA was also measured by first stripping the RPA70 mRNA probe, and then reprobing the same Northern blot with a random primed [α-^32P]dCTP-labeled cDNA probe corresponding to a 600 nucleotide sequence of human GAPDH (Stratagene).
Allele-specific Cleavage of Endogenous RPA70 mRNA in Human Cell Extracts. We next performed oligo-directed cleavage of the full-length, endogenous RPA70 mRNA in whole cell extracts prepared from two genotyped human cell lines, HeLa (1674U) and Calu-1 (1674C). […]

[3] = system: U- and C-alleles of the 544-mer fragment of the RPA70-1674U/C mRNA; assay: E. coli RNase H digestion assay, oligo-directed cleavage in a purified system; format: biochemical, human; conditions: for cleavage efficiency, matched allele versus mismatched allele: 544-mer RPA70 mRNA fragments, oligos target the SNP at position 1674; for reduction in the cleavage of both alleles as compared to parent oligo 3: 544-mer U- and C-alleles, E. coli RNase H; for enhancement in allele discrimination versus parent oligo 3: hairpin oligos, under the experimental conditions
Excerpt: FIG. 3. E. coli RNase H digestion of both alleles of the 544-mer fragment of the RPA70-1674U/C mRNA. a, Nucleotide sequence of the PS-oligos used in the assay. Oligos 1 and 2 (SEQ ID NOs:6 and 7, respectively) target the polymorphic site; the bases opposing the polymorphism in the mRNA are shown in boldface. Oligos 3 and 6 (SEQ ID NOs:8 and 11, respectively) target the site of different allelic structures around nucleotide 1656. The terminal residues of oligos 1, 2, 3, and 6 (SEQ ID NOs:6, 7, 8, and 11, respectively) are labeled according to the positions of the complementary nucleotides in RPA70 mRNA. Oligos 4 and 5 (SEQ ID NOs:9 and 10, respectively) share the same target hybridization sequence as 3 (SEQ ID NO:8), but with additional nucleotides (shown underlined) added to facilitate folding into hairpin structures for intended enhancement in allele discrimination. b, E. coli RNase H digestion patterns of the 5′-^32P-labeled U- and C-alleles hybridized to the oligos in a. Cleavage sites were confirmed by running on the same gel RNase T1 digestion ladders for the two alleles (not shown): they are centered at position 1674 for oligos 1 and 2 (SEQ ID NOs:6 and 7), 1650 for oligos 3-5 (SEQ ID NOs:8-10), and 1654 for oligo 6 (SEQ ID NO:11). c, Comparison of percent cleavages of the U- and C-alleles calculated from b. Oligo-dependent-cleavage bands were integrated as a percentage of total RNA in each lane with the overlapping background-cleavage bands subtracted. Variations in sample loading to each lane were internally corrected by measuring percent cleavage instead of absolute band intensity.
E. coli RNase H Digestion Assay. Phosphorothioate oligodeoxyribonucleotides (PS-oligos) were employed in our studies because of their enhanced stability against nucleases (20). PS-oligos were chemically synthesized and desalted on C-18 cartridges by Synthetic Genetics. One, pmol of 5′-^32P-labeled mRNA was renatured in 12 μL RNase H buffer (20 mM Tris.HCl, pH 7.5, 10 mM KCl, 5 mM MgCl2, 0.1 mM dithiothreitol (DTT), 5% glycerol, and 10 μg phenol-extracted glycogen) by heating for 1 min at 85° C., then cooling for 5 min at room temperature followed by 10 min at 37° C. E. coli RNase H (0.6 units, Pharmacia) was then added to the renatured mRNA and incubated for 5 min at 37° C. PS-oligos (5 pmol in RNase H buffer) were subsequently added, and the reaction mixture (15 μL total) incubated for 20 min at 37° C. The digestion products were fractionated on a 4% denaturing polyacrylamide gel, and the cleavage patterns visualized by autoradiography. RNA levels were quantified using a phosphoimager (Fujifilm Model FLA-2000).
Allele-specific Cleavage of RPA70 mRNA in a Purified System. We first used an in vitro assay with E. coli RNase H and the in vitro transcribed 544-mer RPA70 mRNA fragments to examine the efficiency and allele specificity of structure-based targeting as compared to directly targeting the 1674U/C polymorphism. […] SNP-targeting oligos 1 and 2 were previously optimized for allele discrimination in a cell transfection assay (J. P. Basilion, unpublished results). Each of the SNP-targeting oligos is perfectly matched only with one of the two alleles; it is singly mismatched with the other allele. Single base mismatches formed between the SNP-targeting oligos and their respective non-targeting alleles contribute to the allele discrimination observed previously. Structure-targeting oligos 3 and 6 match perfectly with both alleles, and were designed to hybridize maximally with the single-stranded 1656 region of the U-allele, while avoiding the 1664 region which is slightly accessible in both alleles (FIG. 1b). Four and six additional nucleotides were added to the 5′-end of oligo 3 to produce oligos 4 and 5, respectively, to facilitate folding into hairpin structures for enhanced allele discrimination (27).

[4] = system: 1674C-allele of endogenous RPA70 mRNA; assay: Oligonucleotide-directed cleavage of endogenous RPA70 mRNA in Calu-1 cell extracts (Northern blot); format: biochemical, human; conditions: 300 nM oligo, Calu-1 (1674C) extracts
Experimental: as §1
Oligonucleotide-directed Cleavage of Endogenous RPA70 mRNA in Human Cell Extracts. […] Total protein concentration of cell extracts was determined using the Bradford assay (Bio-Rad). […] The level of intact RPA70 mRNA was determined by total RNA isolation and Northern blot hybridization using procedures described previously (22, 23), and followed by phosphoimager analysis. […]

Substance: 5′ TGGTCTGCAGTTAGGGTCAG 3′ (phosphorothioate backbone, further chemistry not given here) [Oligo 7]
- targeting efficiency on the 1674U- and 1674C-alleles [1]: equally high efficiency
- response of the two cell types to the control oligo ([2]; HeLa versus Calu-1 extracts, 100 to 600 nM): responded similarly

Substance: Oligo 1: Phosphorothioate oligodeoxyribonucleotide 20-mer (SEQ ID NO:6) targeting the RPA70 1674U/C polymorphic site, U-allele specific (dT*dA*dG*dC*dT*dT*dC*dA*dG*dC*dA*dG*dA*dC*dT*dC*dC*dT*dG*dG)
- cleavage efficiency, matched allele versus mismatched allele [3]: greater for their respective matched alleles than for the mismatched alleles
- extent of cleavage of the matched allele (U-allele) ([2]; 300 nM oligo, HeLa (1674U) extracts): the majority of the matched allele remained uncleaved
- cleavage of matched allele versus singly mismatched allele ([2]; 300 nM oligo): equally or slightly more cleaved than the singly mismatched allele

Substance: Oligo 2: Phosphorothioate oligodeoxyribonucleotide 18-mer (SEQ ID NO:7) targeting the RPA70 1674U/C polymorphic site, C-allele specific (dG*dC*dT*dT*dC*dA*dG*dC*dG*dG*dA*dC*dT*dC*dC*dT*dG*dG)
- cleavage efficiency, matched allele versus mismatched allele [3]: greater for their respective matched alleles than for the mismatched alleles
- extent of cleavage of the matched allele (C-allele) [4]: the majority of the matched allele remained uncleaved
- cleavage of matched allele versus singly mismatched allele ([2]; 300 nM oligo): equally or slightly more cleaved than the singly mismatched allele

Substance: Oligo 3: Phosphorothioate oligodeoxyribonucleotide 20-mer (SEQ ID NO:8) targeting the site of different allelic structures around nucleotide 1656 of RPA70 mRNA (dC*dA*dA*dG*dT*dC*dA*dC*dC*dC*dA*dC*dT*dG*dA*dT*dT*dC*dT*dC)
- non-target C-allele intact ([4]; intact mRNA normalized to GAPDH, % of no-oligo control): more than 90%
- U-allele remaining uncleaved ([2]; 300 nM oligo, HeLa (1674U) extracts, intact mRNA normalized to GAPDH, % of no-oligo control): 15%
- allele discrimination relative to that obtained by directly targeting the polymorphism with 20-mer 1 ([2]; HeLa versus Calu-1 extracts, percentage of intact mRNA evaluated, 100, 300 and 600 nM): two- to sixfold

Substance: Oligo 4: PS-oligo (SEQ ID NO:9), oligo 3 with four additional 5′-end nucleotides to facilitate folding into a hairpin structure (GAATCAAGTCACCCACTGATTCTC; all phosphorothioate, sugars by position and methylation of C not given here)
- reduction in the cleavage of both alleles as compared to parent oligo 3 [3]: 23%
- enhancement in allele discrimination versus parent oligo 3 [3]: no enhancement in allele discrimination

Substance: Oligo 5: PS-oligo (SEQ ID NO:10), oligo 3 with six additional 5′-end nucleotides to facilitate folding into a hairpin structure (GAGAATCAAGTCACCCACTGATTCTC; all phosphorothioate, sugars by position and methylation of C not given here)
- reduction in the cleavage of both alleles as compared to parent oligo 3 [3]: 36%
- enhancement in allele discrimination versus parent oligo 3 [3]: no enhancement in allele discrimination

Substance: Oligo 6: Phosphorothioate oligodeoxyribonucleotide 15-mer (SEQ ID NO:11) targeting the site of different allelic structures around nucleotide 1656 of RPA70 mRNA (dC*dA*dA*dG*dT*dC*dA*dC*dC*dC*dA*dC*dT*dG*dA)
- allele discrimination compared with the other oligos ([2]; HeLa versus Calu-1 extracts, all three oligo concentrations (100, 300, 600 nM)): better allele discrimination than the SNP-targeting oligos 1 and 2

From US8389484B2, “Methods for targeting RNA molecules” (priority 1999, dated 2013)
